# DBAASP
# Columns and labels:
# Test in all cases: ≥ marks a high value that may be exact or a test limit, other limits are often not marked, values filed in µg/mL are converted to µM
# [1] = system: Escherichia coli ATCC 25922
# [2] = system: Pseudomonas aeruginosa PAO1
# [3] = system: Salmonella enterica serovar Typhimurium
# [4] = system: Staphylococcus aureus ATCC 25923
# Bacillus subtilis = system: Bacillus subtilis
# Klebsiella pneumoniae = system: Klebsiella pneumoniae
# [5] = system: Bacillus subtilis KCTC 3068
# [6] = system: Escherichia coli KCTC 1682
# [7] = system: Pseudomonas aeruginosa KCTC 1637
# [8] = system: Salmonella typhimurium KCTC 1926
# [9] = system: Staphylococcus aureus KCTC 1621
# [10] = system: Staphylococcus epidermidis KCTC 1917
# Escherichia coli K-12 = system: Escherichia coli K-12
# [11] = system: Pseudomonas aeruginosa ATCC 27853
# [12] = system: Staphylococcus aureus ATCC 6538
# Escherichia coli UB1005 = system: Escherichia coli UB1005
# [13] = system: Salmonella enterica subsp. enterica serovar Typhimurium C77-31
# [14] = system: Staphylococcus aureus ATCC 29213
# [15] = system: Staphylococcus epidermidis ATCC 12228
# [16] = system: Enterococcus faecalis ATCC 29212
Compound,MIC [1] [µM],MIC [4] [µM],MIC [6] [µM],MIC [7] [µM],MIC [8] [µM],MIC [9] [µM],MIC [10] [µM],MIC (Escherichia coli UB1005) [µM],MIC [13] [µM],MIC [14] [µM],MIC [15] [µM],also measured
CC[C@H](C)[C@H](NC(=O)[C@H](CCCN=C(N)N)NC(=O)[C@H](Cc1c[nH]c2ccccc12)NC(=O)[C@H](CS)NC(=O)[C@@H](N)C(C)C)C(=O)N[C@@H](CCCN=C(N)N)C(=O)N[C@H](C(=O)N[C@@H](C)C(=O)N[C@H](C(=O)N[C@H](C(=O)N[C@@H](CCCN=C(N)N)C(=O)N[C@@H](C)C(=O)O)[C@@H](C)CC)C(C)C)C(C)C [VCWRIRVAVIRA],44.4,22.2,,,,,,,,,,MIC [2]: 44.4 µM; MIC [3]: ≥ 44.4 µM
CC[C@H](C)[C@H](NC(=O)[C@H](C)NC(=O)[C@H](CCCCN)NC(=O)[C@H](C)NC(=O)[C@H](CCSC)NC(=O)CNC(=O)CNC(=O)[C@H](CC(C)C)NC(=O)[C@@H](NC(=O)[C@@H](NC(=O)[C@H](CC(N)=O)NC(=O)CNC(=O)[C@H](CCSC)NC(=O)[C@H](CCCN=C(N)N)NC(=O)[C@H](CCC(=O)O)NC(=O)[C@H](CC(=O)O)NC(=O)[C@@H](NC(=O)[C@H](CCCCN)NC(=O)[C@H](CCCCN)NC(=O)[C@H](CCC(N)=O)NC(=O)[C@@H](NC(=O)[C@H](CCCCN)NC(=O)[C@H](CCC(=O)O)NC(=O)[C@H](CCC(=O)O)NC(=O)[C@H](CC(N)=O)NC(=O)[C@@H](NC(=O)[C@H](Cc1c[nH]c2ccccc12)NC(=O)CN)[C@@H](C)CC)[C@@H](C)CC)[C@@H](C)CC)[C@@H](C)O)C(C)C)C(=O)N[C@H](C(=O)N[C@@H](Cc1cnc[nH]1)C(=O)N[C@@H](CCCCN)C(=O)N[C@@H](CCSC)C(=O)N[C@@H](C)C(=O)N[C@@H](CCCCN)C(=O)N[C@@H](CC(N)=O)C(=O)N[C@@H](CCC(=O)O)C(=O)N[C@@H](Cc1ccccc1)C(=O)N[C@@H](CCC(N)=O)C(=O)N[C@H]1CSSC[C@@H]2NC(=O)[C@H](Cc3ccc(O)cc3)NC(=O)CNC(=O)[C@H](CCCCN)NC(=O)[C@H](CCC(=O)O)NC(=O)CNC(=O)[C@H](CO)NC(=O)[C@H]([C@@H](C)O)NC(=O)[C@H](CCC(N)=O)NC(=O)[C@@H]3CSSC[C@@H](C(=O)NCC(=O)N[C@H](C(=O)N4CCC[C@H]4C(=O)N[C@@H](CC(C)C)C(=O)N[C@@H](CO)C(=O)N[C@@H](Cc4ccc(O)cc4)C(=O)O)[C@@H](C)O)NC(=O)[C@H](CCCCN)NC(=O)[C@H](CSSC[C@H](NC(=O)[C@H](CC(N)=O)NC(=O)CNC(=O)[C@H](CC(C)C)NC(=O)[C@H](CCSC)NC(=O)[C@H](CC(=O)O)NC(=O)[C@H](CCSC)NC(=O)[C@H](CC(N)=O)NC(=O)[C@H](C)NC(=O)[C@H](CCSC)NC1=O)C(=O)N[C@@H](CCC(=O)O)C(=O)N[C@@H](CCCCN)C(=O)N[C@@H](Cc1cnc[nH]1)C(=O)N3)NC(=O)[C@H](CCCCN)NC(=O)[C@H]([C@@H](C)O)NC(=O)CNC(=O)[C@H](Cc1cnc[nH]1)NC2=O)C(C)C [GWINEEKIQKKIDERMGNTVLGGMAKAIVHKMAKNEFQCMANMDMLGNCEKHCQTSGEKGYCHGTKCKCGTPLSY],,,,,,,,,,,,MIC (Bacillus subtilis): 1 µM; MIC (Klebsiella pneumoniae): 10 µM
CC[C@H](C)[C@H](NC(=O)[C@H](CCCN=C(N)N)NC(=O)[C@H](Cc1c[nH]c2ccccc12)NC(=O)[C@H](CC(C)C)NC(=O)[C@@H](N)CCCN=C(N)N)C(=O)N[C@H](C(=O)N[C@H](C(=O)N[C@H](C(=O)N[C@@H](CCCN=C(N)N)C(=O)N[C@H](C(=O)N[C@@H](Cc1c[nH]c2ccccc12)C(=O)N[C@@H](CCCN=C(N)N)C(N)=O)C(C)C)[C@@H](C)CC)C(C)C)C(C)C [RLWRIVVIRVWR],,,30.3,15.1,15.1,15.1,15.1,,,,,MIC [5]: 30.3 µM
CC[C@H](C)[C@H](NC(=O)[C@H](CCCCN)NC(=O)[C@H](CCCCN)NC(=O)[C@H](Cc1ccccc1)NC(=O)[C@H](C)NC(=O)[C@H](CCCCN)NC(=O)[C@H](Cc1c[nH]c2ccccc12)NC(=O)[C@@H](N)CCCCN)C(=O)N[C@@H](CCC(=O)O)C(=O)N[C@@H](CCCCN)C(=O)N[C@@H](CCSC)C(=O)N[C@H](C(=O)N[C@@H](CCCN=C(N)N)C(=O)N[C@@H](CC(N)=O)C(=O)N[C@H](C(=O)N[C@@H](CCCN=C(N)N)C(=O)N[C@@H](CC(N)=O)C(=O)N[C@@H](CCCCN)C(=O)N[C@H](C(=O)N[C@H](C(=O)N[C@@H](CCCCN)C(N)=O)C(C)C)[C@@H](C)CC)[C@@H](C)CC)[C@@H](C)CC [KWKAFKKIEKMIRNIRNKIVK],,,,,,,,,,,,MIC (Escherichia coli K-12): 3 µM; MIC [11]: > 3 µM; MIC [12]: > 12 µM
CC[C@H](C)[C@H](NC(=O)[C@H](CCCN=C(N)N)NC(=O)[C@H](CCC(N)=O)NC(=O)[C@@H](NC(=O)[C@@H](NC(=O)[C@H](CCCN=C(N)N)NC(=O)[C@H](CCCCN)NC(=O)[C@H](Cc1ccccc1)NC(=O)[C@H](CC(=O)O)NC(=O)CNC(=O)[C@H](CC(C)C)NC(=O)[C@@H](N)CC(C)C)[C@@H](C)CC)C(C)C)C(=O)N[C@@H](CCCCN)C(=O)N[C@@H](CC(=O)O)C(=O)N[C@@H](Cc1ccccc1)C(N)=O [LLGDFKRIVQRIKDF],,,,,,,,,,,,MIC (Escherichia coli K-12): ≥ 250 µM
NCCCC[C@H](NC(=O)[C@H](CCCCN)NC(=O)[C@H](Cc1c[nH]c2ccccc12)NC(=O)[C@H](CCCCN)NC(=O)[C@@H]1CCCN1C(=O)[C@H](Cc1c[nH]c2ccccc12)NC(=O)[C@H](Cc1c[nH]c2ccccc12)NC(=O)[C@@H]1CCCN1C(=O)[C@H](CCCCN)NC(=O)[C@H](Cc1c[nH]c2ccccc12)NC(=O)[C@H](Cc1c[nH]c2ccccc12)NC(=O)[C@@H]1CCCN1C(=O)[C@H](CCCCN)NC(=O)[C@@H](N)CCCCN)C(=O)O [KKPWWKPWWPKWKK],,,2,4,2,2,1,,,,,MIC [5]: 1 µM
CC[C@H](C)[C@H](N)C(=O)N[C@@H](CC(C)C)C(=O)NCC(=O)N[C@@H](CCCCN)C(=O)N[C@H](C(=O)N[C@@H](CC(C)C)C(=O)N[C@@H](CCCCN)C(=O)NCC(=O)N[C@H](C(=O)N[C@@H](CCCCN)C(=O)N[C@@H](CCCCN)C(=O)N[C@@H](CC(C)C)C(=O)N[C@@H](Cc1ccccc1)C(N)=O)[C@@H](C)CC)[C@@H](C)CC [ILGKILKGIKKLF],,,2,2,1,2,1,,,,,
CC(C)C[C@H](NC(=O)[C@H](CCCN=C(N)N)NC(=O)[C@H](CCCCN)NC(=O)[C@H](Cc1c[nH]c2ccccc12)NC(=O)[C@@H](NC(=O)[C@H](CCCCN)NC(=O)[C@H](CCCCN)NC(=O)[C@H](Cc1c[nH]c2ccccc12)NC(=O)[C@H](CC(C)C)NC(=O)[C@H](CCCN=C(N)N)NC(=O)[C@@H](N)CCCN=C(N)N)[C@@H](C)O)C(=O)N[C@@H](Cc1c[nH]c2ccccc12)C(N)=O [RRLWKKTWKRLW],4,16,,,,,,4,8,8,8,

# Further lines, with some results ahead:
MIC [1] [µM],MIC [4] [µM],MIC [6] [µM],MIC [7] [µM],MIC [8] [µM],MIC [9] [µM],MIC [10] [µM],MIC (Escherichia coli UB1005) [µM],MIC [13] [µM],MIC [14] [µM],MIC [15] [µM],Compound,also measured
32,64,,,,,,16,≥ 128,32,32,CC[C@H](C)[C@H](NC(=O)[C@H](CCCCN)NC(=O)[C@H](CCCCN)NC(=O)[C@H](CC(C)C)NC(=O)[C@@H](NC(=O)[C@H](CCCCN)NC(=O)CNC(=O)[C@@H](NC(=O)[C@H](CCCCN)NC(=O)[C@H](CCCCN)NC(=O)[C@H](CC(C)C)NC(=O)[C@H](CCCN=C(N)N)NC(=O)[C@H](CCCCN)NC(=O)[C@H](CCCN=C(N)N)NC(=O)[C@@H](NC(=O)[C@H](CCCCN)NC(=O)[C@H](CCCCN)NC(=O)[C@H](CCCN=C(N)N)NC(=O)[C@H](CC(C)C)NC(=O)[C@H](CCCN=C(N)N)NC(=O)[C@H](CCCN=C(N)N)NC(=O)[C@H](Cc1ccccc1)NC(=O)[C@H](CCCN=C(N)N)NC(=O)CN)[C@@H](C)O)[C@@H](C)CC)C(C)C)C(N)=O [GRFRRLRKKTRKRLKKIGKVLKKI],
> 128,,,,,,,≥ 128,≥ 128,> 128,> 128,CC[C@H](C)[C@H](NC(=O)[C@H](CCCCN)NC(=O)[C@H](CCCCN)NC(=O)[C@H](CC(C)C)NC(=O)[C@H](CCCN=C(N)N)NC(=O)[C@H](CC(=O)O)NC(=O)[C@H](CCCN=C(N)N)NC(=O)[C@@H](NC(=O)[C@H](CCCCN)NC(=O)[C@H](CC(=O)O)NC(=O)[C@H](CCCN=C(N)N)NC(=O)[C@H](CC(C)C)NC(=O)[C@H](CCCN=C(N)N)NC(=O)[C@H](CCCN=C(N)N)NC(=O)[C@H](Cc1ccccc1)NC(=O)[C@@H](N)CCCN=C(N)N)[C@@H](C)O)C(N)=O [RFRRLRDKTRDRLKKI],MIC [16]: > 128 µM
